Measured values published in PMC4767720 (Drugs in R&D, 2016).
Blank lines part the entries; values can stand above or below the compound they belong to.

How the values were obtained:
syk = conditions: statement of the introduction, no reference given; cited from earlier work
[1] = Rifampicin interaction study, plasma pharmacokinetics; assay type: in vivo, human
[2] = Verapamil interaction study, plasma pharmacokinetics; assay type: in vivo, human
[3] = 10 μM R406, 1 mg protein/mL, 15 min
[4] = Ketoconazole interaction study, plasma pharmacokinetics; assay type: in vivo, human
[5] = Microsomal stability of R406 in human hepatic microsomes; assay type: in vitro ADME; conditions: R406 1 μM, 0.1 mg microsomal protein, NADPH 1 mM, 37 °C, pH 7.4
[6] = Safety and tolerability assessments in the three clinical studies; assay type: in vivo, human
[7] = R406, 150 mg fostamatinib + rifampicin (P2), n=15
[8] = R406, 150 mg fostamatinib alone (P1), n=15
[9] = R406 in plasma, single oral 150 mg fostamatinib alone (P1), n=15
[10] = R406, 80 mg fostamatinib + ketoconazole (P2), n=8
[11] = R406, 80 mg fostamatinib alone (P1), n=8
[12] = R406, 80 mg fostamatinib, ketoconazole 200 mg twice daily
[13] = R406 in plasma, single oral 80 mg fostamatinib alone (P1), n=8

Structure (SMILES): COc1cc(Nc2ncc(F)c(Nc3ccc4c(n3)NC(=O)C(C)(C)O4)n2)cc(OC)c1O [R529]
activity against syk compared with R406 (syk): much less active

reduction in R406 Cmax with rifampicin co-administration ([1]; 150 mg fostamatinib, rifampicin 600 mg once daily): ~60%
effect of rifampicin co-administration on tmax ([1]; R406, 150 mg fostamatinib): no consistent effect
tmax, median [1, 7]: 1.00 h
t½, geometric mean (GCV %) [1, 7]: 10.8 (38.6) h
tmax, median [1, 8]: 2.00 h
t½, geometric mean (GCV %) [1, 8]: 15.0 (30.3) h
AUC0–∞, geometric mean (GCV %) [1, 9]: 6540 (48.5) ng·h/mL
Cmax, geometric mean (GCV %) [1, 9]: 573 (58.7) ng/mL
effect of verapamil co-administration on R406 Cmax ([2]; 150 mg fostamatinib): no consistent effect
effect of verapamil on R406 tmax ([2]; 150 mg fostamatinib): no consistent effect
subjects with higher R406 AUC after verapamil co-administration ([2]; 150 mg fostamatinib, verapamil 80 mg three times daily): 10 of the 13
t½, geometric mean (GCV %) ([2]; R406, 150 mg fostamatinib + verapamil (P2), n=13): 19.1 (51.1) h
tmax, median ([2]; R406, 150 mg fostamatinib + verapamil (P2), n=14): 1.50 h
tmax, median [2, 8]: 1.48 h
t½, geometric mean (GCV %) [2, 8]: 13.5 (28.4) h
AUC0–∞, geometric mean (GCV %) [2, 9]: 6380 (36.1) ng·h/mL
Cmax, geometric mean (GCV %) [2, 9]: 588 (45.7) ng/mL
major metabolite [3]: para-O-demethylated R406, R529
increase in R406 exposure with ketoconazole co-administration ([4]; 80 mg fostamatinib, ketoconazole 200 mg twice daily): 2 fold
tmax, median [4, 10]: 2.00 h
t½, geometric mean (GCV %) [4, 10]: 17.7 (31.9) h
tmax, median [4, 11]: 1.25 h
t½, geometric mean (GCV %) [4, 11]: 13.6 (32.1) h
average increase in AUC0–∞ after co-administration of ketoconazole [4, 12]: 102%
average increase in Cmax after co-administration of ketoconazole [4, 12]: 37%
average t½ ([4]; R406, fostamatinib alone): 14.2 h
tmax (value of the text, not the median) ([4]; R406, fostamatinib plus ketoconazole): 1.69 h
average t½ ([4]; R406, fostamatinib with ketoconazole co-administration): 18.4 h
AUC0–∞, geometric mean (GCV %) [4, 13]: 3690 (19.9) ng·h/mL
Cmax, geometric mean (GCV %) [4, 13]: 325 (13.7) ng/mL
microsomal half-life [5]: 0.407 h
Structure (SMILES): COc1cc(Nc2ncc(F)c(Nc3ccc4c(n3)NC(=O)C(C)(C)O4)n2)cc(OC)c1OC [R406]

Structure (SMILES): COc1cc(Nc2ncc(F)c(Nc3ccc4c(n3)N(COP(=O)(O)O)C(=O)C(C)(C)O4)n2)cc(OC)c1OC [Fostamatinib]
tolerability ([6]; all three clinical studies, alone and in combination with a CYP3A4 inducer/inhibitor): well tolerated
deaths, serious AEs, withdrawals due to AEs, severe AEs ([6]; any of the three studies): no deaths, serious AEs, withdrawals due to AEs or severe AEs
treatment-emergent AEs in subjects receiving fostamatinib and ketoconazole ([6]; ketoconazole interaction study): No treatment-emergent AEs
total AEs reported ([6]; ketoconazole interaction study, all treatments, N=8): eight
total AEs recorded ([6]; rifampicin interaction study, all arms, all mild): four
AEs considered related to administration of fostamatinib ([6]; verapamil interaction study): None
total AEs reported ([6]; verapamil interaction study, one AE per treatment arm, one mild, two moderate): three
plasma levels of R788 ([4]; 80 mg fostamatinib with ketoconazole-placebo or with ketoconazole): negligible
highest plasma concentration of R788 obtained in any subject ([4]; 80 mg fostamatinib with placebo or ketoconazole): < 7 ng/mL
time post-dose beyond which no quantifiable R788 (above 0.5 ng/mL) was obtained ([4]; any subject): 2 h
activity against syk compared with R406 (syk): much less active
